This note sets out measurements from patent publication US8084452B2, “Substituted enaminocarbonyl compounds used as insecticides” (Bayer Cropscience AG, priority 2006, dated 2011).

What all share (assay type): in vivo
The test system of assay [1] is whitefly (Bemisia tabaci). Briefly: Bemisia tabaci (BEMITA spray treatment). The following applies: 500 g/ha, spray on cotton leaf discs infested by larvae. On the procedure:
Bemisia tabaci (BEMITA Spray Treatment)
(§1) To produce a suitable preparation of active compound, 1 part by weight of active compound is mixed with the stated amounts of solvent and emulsifier, and the concentrate is diluted with emulsifier-containing water to the desired concentration.
Discs of cotton leaves (Gossypium hirsutum) which are infested by larvae of the whitefly (Bemisia tabaci) are sprayed with a preparation of active compound of the desired concentration.
After the desired period of time, the effect in % is determined 100% means that all whiteflies have been killed; 0% means that none of the whiteflies have been killed.

Assay [2] concerns green peach aphid (Myzus persicae). Briefly: Myzus test (MYZUPE spray treatment). The following applies: 500 g/ha, spray on Chinese cabbage leaf discs. On the procedure: Myzus Test (MYZUPE Spray Treatment)
as §1
Discs of Chinese cabbage leaves (Brassica pekinensis) which are infested by all stages of the green peach aphid (Myzus persicae) are sprayed with a preparation of active compound of the desired concentration.
After the desired period of time, the effect in % is determined 100% means that all aphids have been killed; 0% means that none of the aphids have been killed.

In assay [3] the test system is Lucilia cuprina larvae. Briefly: Lucilia cuprina test (LUCICU). The conditions noted are these: 100 ppm, treated horse meat. On the procedure:
Lucilia cuprina Test (LUCICU)
To produce a suitable preparation of active compound, 1 part by weight of active compound is mixed with the stated amounts of solvent, and the concentrate is diluted with water to the desired concentration.
Containers containing horse meat treated with the preparation of active compound of the desired concentration are populated with Lucilia cuprina larvae.
After the desired period of time, the kill in % is determined 100% means that all larvae have been killed; 0% means that none of the larvae have been killed.

For assay [4], the system named is adult fleas (Ctenocephalides felis). The assay can be described thus: Ctenocephalides felis; oral (CTECFE). The following applies: 100 ppm in citrated cattle blood. On the procedure: Ctenocephalides felis; Oral (CTECFE)
To produce a suitable preparation of active compound, 1 part by weight of active compound is mixed with the stated amount of solvent. Part of the concentrate is diluted with citrated cattle blood, and the desired concentration is prepared.
20 unfed adult fleas (Ctenocephalides felis) are placed into a chamber whose top and bottom ends are closed with gauze. A metal cylinder whose bottom end is closed with parafilm is placed onto the chamber. The cylinder contains the blood/active compound preparation, which can be taken up by the fleas through the parafilm membrane. The blood is warmed to 37° C., but the flea chamber is at room temperature.
After the desired period of time, the kill in % is determined 100% means that all fleas have been killed; 0% means that none of the fleas have been killed.

Assay [5] relates to Meloidogyne incognita. The assay can be described thus: Meloidogyne test (MELGIN spray treatment). The following applies: 20 ppm, nematicidal activity by formation of galls on lettuce roots. On the procedure: Meloidogyne Test (MELGIN Spray Treatment)
(§2) To produce a suitable preparation of active compound, 1 part by weight of active compound is mixed with the stated amounts of solvent and emulsifier, and the concentrate is diluted with water to the desired concentration.
Containers are filled with sand, active compound solution, Meloidogyne incognita egg/larvae suspension and lettuce seeds. The lettuce seeds germinate and the plants develop. On the roots, galls are formed.
After the desired period of time, the nematicidal activity is determined by the formation of galls in %. 100% means that no galls were found; 0% means that the number of galls on the treated plants corresponds to that of the untreated controls.

Assay [6] has as its system cotton aphid (Aphis gossypii). The assay can be described thus: Aphis gossypii test (APHIGO), leaf dip. The conditions noted are these: 100 ppm, cotton leaves dipped. On the procedure: Aphis gossypii Test (APHIGO)
as §1
Cotton leaves (Gossypium hirsutum) which are heavily infested by the cotton aphid (Aphis gossypii) are treated by being dipped into the preparation of active compound of the desired concentration.
(§3) After the desired period of time, the kill in % is determined 100% means that all aphids have been killed; 0% means that none of the aphids have been killed.

Assay [7] relates to brown planthopper (Nilaparvata lugens). Briefly: Nilaparvata lugens test (NILALU hydroponic treatment). The following applies: 100 g/ha (so in the source), active compound pipetted into water. On the procedure:
Nilanarvata lugens Test (NILALU Hydrononic Treatment)
as §1
The preparation of active compound is pipetted into water. […] The water is then infected with the brown planthopper (Nilaparvata lugens).
After the desired period of time, the effect in % is determined. 100% means that all planthoppers have been killed; 0% means that none of the planthoppers have been killed.

Assay [8] relates to green peach aphid (Myzus persicae). Briefly: Myzus persicae test (MYZUPE G), watering. The following applies: 4 ppm, cabbage plants watered. On the procedure:
Myzus persicae Test; (MYZUPE G)
as §2
Cabbage plants (Brassica oleracea) which are heavily infested by the green peach aphid (Myzus persicae) are watered with a preparation of active compound of the desired concentration.
as §3

Assay [9] has as its system Boophilus microplus. Briefly: Boophilus microplus test (BOOPMI injection). The conditions noted are these: 20 μg/animal injected into abdomen, 100% means no tick has laid fertile eggs. On the procedure:
Boophilus microplus Test (BOOPMI Injection)
To produce a suitable preparation of active compound, 1 part by weight of active compound is mixed with the stated amount of solvent, and the concentrate is diluted with solvent to the desired concentration.
The solution of active compound is injected into the abdomen (Boophilus microplus), and the animals are transferred into dishes and kept in a temperature-controlled room.
After the desired period of time, the effect in % is determined. 100% means that no tick has laid any fertile eggs.

Assay [10] deals with cotton aphid (Aphis gossypii). The assay can be described thus: Aphis gossypii test (APHIGO G), watering. The conditions noted are these: 4 ppm, cotton plants watered. On the procedure: Aphis gossypii Test; (APHIGO G)
as §2
Cotton plants (Gossypium hirsutum) which are heavily infested by the cotton aphid (Aphis gossypii) are watered with a preparation of active compound of the desired concentration.
(§4) After the desired period of time, the kill in % is determined. 100% means that all aphids have been killed; 0% means that none of the aphids have been killed.

In assay [11] the test system is green peach aphid (Myzus persicae). Briefly: Myzus persicae test, hydroponic treatment (MYZUPE sys.). The conditions noted are these: 20 ppm in water, pea plant. On the procedure: Myzus persicae Test, Hydroponic Treatment (MYZUPE Sys.)
as §2
The preparation of active compound is mixed with water. The stated concentration refers to the amount of active compound per volume unit of water (mg/l=ppm). The treated water is filled into containers housing a pea plant (Pisum sativum) which is then infected with the green peach aphid (Myzus persicae).
as §4

On to `O=C1C=C(N(Cc2cnc(Cl)c(F)c2)CC(F)F)CO1` [Example 1, 4-[[(6-Chloro-5-fluoropyridin-3-yl)methyl](2,2-difluoroethyl)amino]furan-2(5H)-one], for which, in [1], the “Kill rate in % after 7 days” value is given as 100%. The “Kill rate in % after 5 days” value in assay [2] amounted to 100%. Moreover, the figures for the “Kill rate in % after 2 days” value in [3] and in assay [4] were 100% and 80%, respectively.

For the compound `O=C1C=C(N(CCF)Cc2cnc(Cl)c(Cl)c2)CO1` [Example 2, 4-[[(5,6-Dichloropyridin-3-yl)methyl](2-fluoroethyl)amino]furan-2(5H)-one], the “Kill rate in % after 14 days” value in assay [5] was found to be 100%. The “Kill rate in % after 6 days” value in assay [6] amounted to 95%; in assay [11] it was 100%. The “Kill rate in % after 7 days” value in assay [7] was 80%; in assay [9] it was 100%. The “Kill rate in % after 10 days” value in [8] is reported as 98%; in [10], 100%. Besides, the “Kill rate in % after 5 days” value in assay [2] amounted to 100%.
